Literature values, collected in US20120289492A1, “METHODS OF TREATING MITOCHONDRIAL DISORDERS USING METALLOPORPHYRINS” (priority 2009, published 2012).

What was measured:
[1] = test system: CD-1 Sod2−/− mice; conditions: cited from earlier work
[2] = safety studies in mice, monkeys and rats; phase 1 in amyotrophic lateral sclerosis patients; cited from earlier work

For `[Cl-].[Mn+3].[O-]c1ccccc1C=NCCN=Cc1ccccc1[O-]` [EUK8], the neurodegeneration [1] is given as “ameliorated” and the spongiform encephalopathy [1] is given as “ameliorated”.
In the case of `O=C(O)c1ccc(/C2=C3\C=CC(=N3)/C(c3ccc(C(=O)O)cc3)=c3/cc/c4[n]3[Mn]([Cl])[n]3c2ccc3/C(c2ccc(C(=O)O)cc2)=C2/C=CC(=N2)\C=4c2ccc(C(=O)O)cc2)cc1` [MnTBAP, manganese tetrakis 5, 10, 15, 20 . . . porphyrin], the cardiomyopathy [1] is given as “ameliorated” and the neurodegeneration [1] is given as “but not neurodegeneration”.
In the case of `CCN1C=CN(CC)C1=C1C2=NC(=C(c3n(CC)cc[n+]3CC)C3=NC(=C(c4n(CC)cc[n+]4CC)c4ccc([n-]4)C(c4n(CC)cc[n+]4CC)=C4C=CC1=N4)C=C3)C=C2.[Cl-].[Cl-].[Cl-].[Cl-].[Cl-].[Mn+3]` [AEOL10150], the serious adverse events [2] is given as “No serious adverse events have been found”.
In the case of `COc1cccc(C=NCCN=Cc2cccc(OC)c2[O-])c1[O-].[Cl-].[Mn+3]` [EUK134], the neurodegeneration [1] is listed as “ameliorated” and the spongiform encephalopathy [1] is listed as “ameliorated”.
